In patent US11001587B2, “Substituted indazoles as phosphatidylinositol kinase inhibitors” (CUROVIR AB, priority 2017, dated 2021):
Read-outs that look alike come from different tables or passages of the source.

Legend:
[1] = test system: Coxsackie B3 (Nancy strain) virus; assay: CVB3-induced pancreatitis mouse model; assay type: in vivo; settings: Coxsackie B3 Nancy strain infected SJL mice, 4 different dosages, treated 2 h pre-infection then once daily for 3 days
Experimental: Compounds of the present invention were studied in a CVB3 induced pancreatitis mouse model as described by van der Schaar et al (Antimicrob. Agents Chemother. 2013, 57(10):4971-4981). Animals (SJL mice) were infected intraperitoneally with 0.3 ml Coxsackie B3 (Nancy strain) virus (log TCID50=8). The animals were treated 2 h pre-infection and then once daily for 3 days. The animals were euthanized and organs were collected for pancreatitis evaluation by histopathology and for virus titer determination by immunohistochemistry and polymerase chain reaction (PCR). Pancreata were obtained from infected and uninfected control animals and from animals treated with 4 different dosages of Example 8, and HE-stained slides of the organs were prepared, studied and scored for signs of inflammation and necrosis on a scale from 0 to 3, as follows: 0=no abnormalities. […] The virus titer in the organs was determined by immunohistochemistry using the Dako 5-D8/1 monoclonal mouse antibody and the titer was scored on a scale from 0 to 4, where 0 indicates no infection and 4 corresponds to the highest determined virus titer (FIG. 4). The Ct values from PCR detection of virus titers were determined (FIG. 5). […] Corresponding studies were also performed on Examples 2, 8 and 20 at a dosage of 50 mg/kg/day and pancreatitis scoring and Ct values were determined (FIG. 6).

in vivo = assay: in vivo; parameters: species or system Sprague Dawley rats; settings: Sprague Dawley, rat, po
Experimental: Based on previous toxicity tests with analogs and pharmacokinetic data, repeated dose toxicity and toxicokinetic studies were conducted to generate information on the toxic characteristics of some representative compounds of the invention, viz. Example 8 and Example 12, respectively, when administered orally by gavage to Sprague Dawley rats for a period of 7 consecutive days. The study plan for the studies was by current ICH guidelines for 7 days toxicity studies and the No Observed Adverse Effect Level (NOAEL) of Example 8 and Example 12 was determined as 60 mg/kg body weight/day and 50 mg/kg bodyweight/day respectively when administered once daily orally to Sprague Dawley rats for 7 consecutive days under the tested dose levels and experimental conditions employed.

EV71 = assay: Time of addition assay; assay type: cell-based, Enterovirus 71; settings: Enterovirus A, 100 nM, EV71 at high titer
Experimental: The titer of the virus was determined by the standard method of tissue culture infective dose (TCID50) on cells. Briefly, cells were infected with 50 μl of virus suspension, and diluted 10-fold in media. The plates were incubated in 37° C. with 5% CO2 for 3-7 days and cells were inspected daily for CPE. After determining CPE, plates were stained with Gram's Crystal Violet solution and optical density was read at 540 nm. […] Substances at a final concentration of 0.1 nM-1 μM and the virus were added to the cells and incubated for 3-7 days depending on the virus and cell line used. As controls, uninfected cells and cells infected with virus (no substance) were included on each plate. The cells were stained with crystal violet after determining the CPE on infected controls and the optical density was read at 540 nm. The inhibition capacity was calculated as a % by comparison with non-infected and infected controls. Time of addition assay The assay was performed like the “in vitro assay in mammalian cell culture” described above with the exception that substance was added one hour pre inoculation (−1 h), at inoculation (0 h), and 2 hours (+2 h), 6 hours (+6 h) or 24 hours (+24 h) past inoculation. The virus EV71 was used at high titer for the test.

## Cc1cc(NCc2ccncc2)n2nc(C)c(-c3ccc4c(c3)c(C)nn4C)c2n1 [Example 8, 3-(1,3-dimethyl-1H-indazol-5-yl)-2,5-dimethyl-N-(pyridin-4-ylmethyl)pyrazolo[1,5-a]pyrimidin-7-amine]
[1]
  Dose-response of pancreatitis scoring and virus titer: very good dose-response
In vivo
  NOAEL at 7 days: 60 mg/kg/day

## Cc1nc(NCc2ccncc2)n2nc(C)c(-c3ccc4c(c3)c(C)nn4C)c2n1 [Example 20, 8-(1,3-dimethyl-1H-indazol-5-yl)-2,7-dimethyl-N-(pyridin-4-ylmethyl)pyrazolo[1,5-a][1,3,5]triazin-4-amine]
EV71; 0 h, substance added at inoculation, read-out: Inhibition of cytopathogenic effect, 0 h
  inhibition at 0.1 µM: 94%
EV71; 1 h, substance added one hour pre inoculation, read-out: Inhibition of cytopathogenic effect, −1 h
  inhibition at 0.1 µM: 85%
EV71; substance added 2 hours past inoculation, read-out: Inhibition of cytopathogenic effect, +2 h
  inhibition at 0.1 µM: 95%
EV71; substance added 6 hours past inoculation, read-out: Inhibition of cytopathogenic effect, +6 h
  inhibition at 0.1 µM: 99%
EV71; substance added 24 hours past inoculation, read-out: Inhibition of cytopathogenic effect, +24 h
  inhibition at 0.1 µM: 2%
